The assay deals with H1047R PIK3CA enzyme (Homo sapiens, UniProt P42336, H1047R). The experiment in a line: ADP-Glo Biochemical PIK3CA Kinase Assay.
Sequence of H1047R PIK3CA enzyme (P42336 whole entry H1047R): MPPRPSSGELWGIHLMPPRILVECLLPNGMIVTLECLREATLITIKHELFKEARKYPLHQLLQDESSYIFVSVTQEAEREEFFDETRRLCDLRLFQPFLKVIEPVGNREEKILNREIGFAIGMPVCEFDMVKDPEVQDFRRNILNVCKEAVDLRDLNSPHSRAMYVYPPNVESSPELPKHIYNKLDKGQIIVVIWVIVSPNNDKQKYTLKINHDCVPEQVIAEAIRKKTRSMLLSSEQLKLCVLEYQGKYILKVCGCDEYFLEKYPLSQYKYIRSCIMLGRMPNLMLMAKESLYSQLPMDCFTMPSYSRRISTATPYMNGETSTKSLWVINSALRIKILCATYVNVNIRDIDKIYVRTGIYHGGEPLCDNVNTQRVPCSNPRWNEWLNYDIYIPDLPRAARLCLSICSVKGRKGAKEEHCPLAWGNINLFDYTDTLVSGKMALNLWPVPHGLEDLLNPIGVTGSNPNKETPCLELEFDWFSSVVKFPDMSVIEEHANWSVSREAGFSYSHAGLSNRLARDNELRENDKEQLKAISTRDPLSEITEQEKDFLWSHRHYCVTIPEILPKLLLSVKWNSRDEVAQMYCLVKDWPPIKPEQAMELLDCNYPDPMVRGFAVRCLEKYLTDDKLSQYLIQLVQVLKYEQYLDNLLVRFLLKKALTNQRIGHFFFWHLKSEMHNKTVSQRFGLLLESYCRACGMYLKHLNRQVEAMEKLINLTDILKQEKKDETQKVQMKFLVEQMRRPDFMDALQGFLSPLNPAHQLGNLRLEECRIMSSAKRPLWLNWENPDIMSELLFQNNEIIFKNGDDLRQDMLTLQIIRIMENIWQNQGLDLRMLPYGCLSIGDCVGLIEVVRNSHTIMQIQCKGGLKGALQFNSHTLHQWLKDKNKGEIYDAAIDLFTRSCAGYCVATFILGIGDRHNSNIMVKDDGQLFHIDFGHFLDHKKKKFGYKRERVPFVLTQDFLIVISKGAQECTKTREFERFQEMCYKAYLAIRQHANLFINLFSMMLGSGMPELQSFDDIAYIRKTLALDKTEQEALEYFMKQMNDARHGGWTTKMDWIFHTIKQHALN
Sequence of H1047R PIK3CA enzyme (P27986 whole entry partner): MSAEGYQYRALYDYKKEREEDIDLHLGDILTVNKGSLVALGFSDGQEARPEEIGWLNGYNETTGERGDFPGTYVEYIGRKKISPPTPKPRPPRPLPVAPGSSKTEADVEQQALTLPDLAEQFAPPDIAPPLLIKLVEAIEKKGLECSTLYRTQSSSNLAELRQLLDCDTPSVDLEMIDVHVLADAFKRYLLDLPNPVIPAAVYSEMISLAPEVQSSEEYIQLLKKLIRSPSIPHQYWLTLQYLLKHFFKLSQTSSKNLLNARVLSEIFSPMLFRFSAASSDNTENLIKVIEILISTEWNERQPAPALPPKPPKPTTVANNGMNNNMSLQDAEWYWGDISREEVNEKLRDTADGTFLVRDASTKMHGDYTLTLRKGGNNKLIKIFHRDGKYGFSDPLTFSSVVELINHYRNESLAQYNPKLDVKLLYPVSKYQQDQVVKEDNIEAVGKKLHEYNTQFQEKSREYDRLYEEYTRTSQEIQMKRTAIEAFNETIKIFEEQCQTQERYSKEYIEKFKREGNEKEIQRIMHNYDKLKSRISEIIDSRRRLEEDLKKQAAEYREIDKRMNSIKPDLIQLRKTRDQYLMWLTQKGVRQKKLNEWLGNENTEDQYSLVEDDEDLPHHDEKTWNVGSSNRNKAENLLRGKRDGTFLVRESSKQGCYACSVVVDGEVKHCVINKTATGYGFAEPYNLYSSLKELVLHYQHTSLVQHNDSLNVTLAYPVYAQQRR
As to `Nc1cc(NC(=O)c2cc(F)cc(C(F)(F)F)c2)c2c(n1)C(=O)NC2c1cc(F)ccc1Cl` (stereo not drawn) [Compound I-273], the IC50 (in general, the concentration needed to halve the response being measured) is 0.1 to 0.5 µM.
The figure for `O=C(Nc1cnc(NC2COC2)c2c1C(c1cc(F)ccc1Cl)NC2=O)c1cc(F)cc(C(F)(F)F)c1` (stereo not drawn) [Compound I-440] is 1 to 10 µM.
Take `Cc1ccc(F)cc1C1NC(=O)c2cccc(NC(=O)c3cc(F)cc(C(F)(F)F)c3)c21` (stereo not drawn) [Compound I-281]: the IC50 fell in the range of 0.1 to 0.5 µM.
The figure for `O=C1NC[C@@H](c2cc(NC(=O)c3cc(F)cc(C(F)(F)F)c3)c3c(c2)C(=O)N[C@@H]3c2cc(F)ccc2Cl)O1` (single isomer, unassigned) [Compound I-1560] is 0.5 to 1 µM.
`O=C(Nc1cc(Br)cc2c1C(c1cc(F)ccc1Cl)NC2=O)c1cc(F)cc(CC(F)F)c1` (stereo not drawn) [Compound I-1745] had an IC50 of 1 to 10 µM.
As to `[2H]c1nc2cnc(-c3cc(NC(=O)c4cc(F)cc(C(F)(F)F)c4)c4c(c3)C(=O)NC4c3cc(F)ccc3Cl)cn2n1` (stereo not drawn) [Compound I-2012], the IC50 is not above 0.1 µM.
To `O=C(Nc1cc(F)cc(C(F)(F)F)c1)c1cccc2c1C(c1cc(F)ccc1Cl)NC2=O` (stereo not drawn) [Compound I-1353] belongs 1 to 10 µM; to `NCCc1cc(NC(=O)N2C[C@](O)(C(F)(F)F)c3cc(F)ccc32)c2c(c1)C(=O)N[C@H]2c1cc(F)ccc1Cl` (single isomer, unassigned) [Compound I-2582], 0.1 to 0.5 µM.
Turning to `O=C(Nc1cc(Oc2ccccn2)cc2c1C(c1cc(F)ccc1Cl)NC2=O)c1cc(F)cc(C(F)(F)F)c1` (stereo not drawn) [Compound I-1077], the IC50 is 0.1 to 0.5 µM.
To `Cc1ccccc1C1NC(=O)c2ccnc(NC(=O)c3nsc4ccccc34)c21` (stereo not drawn) [Compound I-176, N-[3-(2-Methylphenyl)-1-oxo-1H,2H,3H-pyrrolo[3,4-c]pyridin-4-yl]-1,2-benzothiazole-3-carboxamide] belongs 1 to 10 µM; to `CS(=O)(=O)Cc1cc(NC(=O)c2cc(F)cc(C(F)(F)F)c2)c2c(n1)C(=O)NC2c1cc(F)ccc1Cl` (stereo not drawn) [Compound I-1644], not above 0.1 µM.
The figure for `O=C1NC(c2cc(F)ccc2Cl)c2c1cc(-c1cnn(C(F)F)c1)cc2-c1cn2ccc(C(F)(F)F)cc2n1` (stereo not drawn) [Compound I-2135] is 1 to 10 µM.
The figure for `O=C(Nc1cccc2c1[C@@H](C[C@@H]1CCCCN1)NC2=O)c1cc(F)cc(C(F)(F)F)c1` (single isomer, unassigned) [Compound I-2281] is 10 to 100 µM; for `Cn1cc(-c2cc(NC(=O)c3nsc4ccccc34)c3c(n2)C(=O)NC3c2ccccc2Cl)cn1` (stereo not drawn) [Compound I-108] it is 0.1 to 0.5 µM.
In turn, `O=C(Nc1cccc2c1[C@@H](C1CCC(F)(F)CC1)NC2=O)c1cc(F)cc(C(F)(F)F)c1` [Compound I-2072] registered an IC50 of 10 to 100 µM.
Compound `N#Cc1c(-c2cc(NC(=O)c3cc(F)cc(C(F)(F)F)c3)c3c(c2)C(=O)N[C@H]3c2cc(F)ccc2Cl)cnn1C(F)F` [Compound I-1921] gave an IC50 not above 0.1 µM.
In turn, `O=C(CCc1ccccc1)Nc1cccc2c1C(c1cc(F)ccc1Cl)NC2=O` (stereo not drawn) [Compound I-2362] displayed a 50% inhibitory concentration (IC50) of 10 to 100 µM.
To `O=C1NC(c2cc(F)ccc2Cl)c2c(NC(=O)C3OCCc4ccccc43)cc(-c3ccc4ncnn4c3)cc21` (stereo not drawn) [Compound I-1939] belongs 1 to 10 µM; to `CC(C)(O)Cc1cc(F)cc(C(=O)Nc2cc(CC(C)(C)O)cc3c2C(c2cc(F)ccc2Cl)NC3=O)c1` (stereo not drawn) [Compound I-696], 10 to 100 µM; to `CN(Cc1cccc(O)c1)C(=O)Nc1cc(Br)cc2c1C(c1cc(F)ccc1Cl)NC2=O` (stereo not drawn) [Compound I-1382], 10 to 100 µM.
To `COc1ccnc(Oc2cc(NC(=O)c3cc(F)cc(C(F)(F)F)c3)c3c(c2)C(=O)NC3c2cc(F)ccc2Cl)n1` (stereo not drawn) [Compound I-1143] belongs 0.1 to 0.5 µM; to `C[C@@H](C#N)Oc1cc(NC(=O)c2cc(F)cc(C(F)(F)F)c2)c2c(c1)C(=O)N[C@H]2c1cc(F)ccc1Cl` (single isomer, unassigned) [Compound I-2009], not above 0.1 µM.
`Nc1nc2cc(-c3cc(NC(=O)c4cc(F)cc(C(F)(F)F)c4)c4c(c3)C(=O)N[C@H]4c3cc(F)ccc3Cl)ccn2n1` [Compound I-1447]: the IC50 was not above 0.1 µM.
`O=C(Nc1cc(C(O)COCCO)cc2c1C(c1cc(F)ccc1Cl)NC2=O)c1cc(F)cc(C(F)(F)F)c1` (stereo not drawn) [Compound I-1134]: the IC50 is 0.1 to 0.5 µM.
The compound `O=C1N[C@@H](c2cc(F)ccc2Cl)c2c(N[C@@H]3COCc4ccccc43)cc(Br)cc21` (racemic) [Compound I-1894] returned an IC50 of 10 to 100 µM.
`CNc1cc(C2NC(=O)c3cccc(NC(=O)c4cc(F)cc(C(F)(F)F)c4)c32)ccn1` (stereo not drawn) [Compound I-874] registered an IC50 of 10 to 100 µM.
To `O=C1NC(c2cc(F)ccc2Cl)c2c(NC(=O)C3CCCO3)cc(-c3ccc4ncnn4c3)cc21` (stereo not drawn) [Compound I-1831] belongs 10 to 100 µM; to `Nc1ccc(C(=O)Nc2cc(Br)cc3c2C(c2cc(F)ccc2Cl)NC3=O)cc1C(F)(F)F` (stereo not drawn) [Compound I-719], 1 to 10 µM.
The figure for `N#Cc1cc2nccn2cc1-c1cc(NC(=O)c2cc(F)cc(C(F)(F)F)c2)c2c(c1)C(=O)N[C@H]2c1cc(F)ccc1Cl` [Compound I-1586] is not above 0.1 µM; for `O=C1NC(c2cc(F)ccc2Cl)c2c(NC(=O)C3CCc4ccccc4CC3)cccc21` (stereo not drawn) [Compound I-2374] it is 10 to 100 µM.
In turn, `O=C(Nc1cc(-c2ccc3nncn3c2)cc2c1C(c1cc(F)ccc1Cl)NC2=O)c1cc(F)cc(C(F)(F)F)c1` (stereo not drawn) [Compound I-821] registered an IC50 not above 0.1 µM.
The figure for `O=C(NCCC(O)CO)c1cc(NC(=O)c2cc(F)cc(C(F)(F)F)c2)c2c(c1)C(=O)NC2c1cc(F)ccc1Cl` (stereo not drawn) [Compound I-1493] is not above 0.1 µM; for `Cn1nc(C(F)(F)F)cc1-c1cc(NC(=O)c2cc(F)cc(C(F)(F)F)c2)c2c(c1)C(=O)NC2c1cc(F)ccc1Cl` (stereo not drawn) [Compound I-1865] it is not above 0.1 µM; for `Cc1ccccc1C1NC(=O)c2c(CN)ccc(NC(=O)c3csc4ccccc34)c21` (stereo not drawn) [Compound I-140] it is not above 0.1 µM.
`Cc1c(-c2cc(NC(=O)c3cc(F)cc(C(F)(F)F)c3)c3c(c2)C(=O)N[C@H]3c2cc(F)ccc2Cl)ccc2ncnn12` [Compound I-1876] returned an IC50 not above 0.1 µM.
In turn, `O=C(Cc1ccccc1)Nc1cc(-c2ccc3ncnn3c2)cc2c1C(c1cc(F)ccc1Cl)NC2=O` (stereo not drawn) [Compound I-1665] yielded an IC50 of 10 to 100 µM.
To `Cn1cc(Br)c(C(=O)Nc2cccc3c2C(c2cc(F)ccc2Cl)NC3=O)n1` (stereo not drawn) [Compound I-582] belongs 10 to 100 µM; to `O=C1N[C@H](c2cc(F)ccc2Cl)c2c(NC(=O)N3C[C@H](O)c4cc(F)ccc43)cccc21` (single isomer, unassigned) [Compound I-2128], 10 to 100 µM; to `O=C1N[C@@H](c2ccccc2Cl)c2c(NC(=O)c3csc4ccccc34)ccnc21` [Compound I-32], 1 to 10 µM.
To `O=C(Nc1cc(CS(=O)(=O)N2CCOCC2)cc2c1[C@H](c1cc(F)ccc1Cl)NC2=O)c1cc(F)cc(C(F)(F)F)c1` [Compound I-1485] belongs not above 0.1 µM; to `O/N=C(\Nc1cccc2c1C(c1cc(F)ccc1Cl)NC2=S)c1cc(F)cc(C(F)(F)F)c1` (stereo not drawn) [Compound I-846], 0.5 to 1 µM.
To `O=C(Nc1cc(NCC(F)F)cc2c1C(c1cc(F)ccc1Cl)NC2=O)c1cc(F)cc(C(F)(F)F)c1` (stereo not drawn) [Compound I-275] belongs not above 0.1 µM.
In turn, `Cc1ccccc1C1NC(=O)c2cccc(NC(=O)N3CCCCC3)c21` (stereo not drawn) [Compound I-433] returned an IC50 of 10 to 100 µM.
As to `O=C(Nc1cc(Br)cc2c1C(c1cc(F)ccc1Cl)NC2=O)c1ccnc(C(F)(F)F)c1F` (stereo not drawn) [Compound I-607], the IC50 lay in the range of 10 to 100 µM.
To `NS(=O)(=O)Cc1cc(NC(=O)c2cc(F)cc(C(F)(F)F)c2)c2c(c1)C(=O)N[C@@H]2c1cc(F)ccc1Cl` [Compound I-1479] belongs 1 to 10 µM.
The figure for `O=C(Nc1cc(N2CCC2)nc2c1C(c1cc(F)ccc1Cl)NC2=O)c1cc(F)cc(C(F)(F)F)c1` (stereo not drawn) [Compound I-441] is not above 0.1 µM; for `COc1cc2c(cn1)N(C(=O)Nc1ccnc3c1C(c1ccccc1C)NC3=O)CC2` (stereo not drawn) [Compound I-324] it is 10 to 100 µM.
As for `O=C1N[C@@H](c2cc(F)ccc2Cl)c2c(NC(=O)N3C[C@H](O)c4cc(F)ccc43)cccc21` (single isomer, unassigned) [Compound I-2126], the IC50 is 0.5 to 1 µM.
For the compound `CN1C(=O)NC(c2cc(F)ccc2Cl)c2c(NC(=O)c3cc(F)cc(C(F)(F)F)c3)cccc21` (stereo not drawn) [Compound I-1951], the IC50 lay in the range of 1 to 10 µM.
To `Cc1ccccc1C1NC(=O)c2cccc(NC(=O)c3nc(C)n4ccc(Cl)cc34)c21` (stereo not drawn) [Compound I-277, 7-Chloro-N-(1-oxo-3-(o-tolyl)isoindolin-4-yl)-3-methylimidazo[1,5-a]pyridine-1-carboxamide] belongs 10 to 100 µM.
With `COc1ncc(-c2cc(NC(=O)c3cc(F)cc(C(F)(F)F)c3)c3c(c2)C(=O)NC3c2cc(F)ccc2Cl)cc1F` (stereo not drawn) [Compound I-1419], the IC50 was not above 0.1 µM.
The figure for `O=C1N[C@@H](c2cc(F)ccc2Cl)c2c(NC(=O)[C@@H]3CCCCN3)cc(-c3ccc4ncnn4c3)cc21` (racemic) [Compound I-1780] is 10 to 100 µM; for `O=C(Cc1c(F)ccc(F)c1F)Nc1cc(Br)cc2c1C(c1cc(F)ccc1Cl)NC2=O` (stereo not drawn) [Compound I-563] it is 10 to 100 µM; for `O=C1NC(c2cc(F)ccc2Cl)c2c(Nc3nccc4cc[nH]c34)cc(Br)cc21` (stereo not drawn) [Compound I-1460] it is 10 to 100 µM.
The figure for `N#Cc1cnc2cc(F)c(-c3cc(NC(=O)c4cc(F)cc(C(F)(F)F)c4)c4c(c3)C(=O)NC4c3cc(F)ccc3Cl)cn12` (stereo not drawn) [Compound I-1838] is not above 0.1 µM.
The figure for `O=C(O)c1cc(-c2ccc3ncnn3c2)cc2c1C(c1cc(F)ccc1Cl)NC2=O` (stereo not drawn) [Compound I-1784] is 10 to 100 µM; for `O=C(Nc1ccccc1)c1cccc2c1C(c1cc(F)ccc1Cl)NC2=O` (stereo not drawn) [Compound I-2188] it is 10 to 100 µM; for `O=C(Nc1cc(Br)cc2c1[C@H](c1c(F)cccc1Cl)NC2=O)c1cc(F)cc(C(F)(F)F)c1` [Compound I-680] it is not above 0.1 µM.
With `O=C(Nc1cc(Br)cc2c1C(c1cc(F)ccc1Cl)NC2=O)c1cc(Cl)ccc1OC(F)(F)F` (stereo not drawn) [Compound I-859], the IC50 is 1 to 10 µM.
The figure for `O=C(Nc1cc(-c2cn3ccnc3cn2)cc2c1[C@@H](c1cc(F)ccc1Cl)NC2=O)c1cc(F)cc(C(F)(F)F)c1` [Compound I-1329] is 1 to 10 µM.

The record behind these values is patent publication US12581252B2, “Substituted pyrrolo[3,4-b]pyridines as PI3K-α inhibitors” (Relay Therapeutics, Inc., priority 2020, dated 2026).
